Results: US20250262279A1, “DOSE REGIMEN FOR LONG-ACTING GLP1/GLUCAGON RECEPTOR AGONISTS” (Boehringer Ingelheim International GmbH, priority 2021, published 2025)

Assay: Example 1 Phase I titration study in obesity/overweight: safety and tolerability
From the text: Blinded within dose groups, randomised, placebo-controlled
• Male patients (Part A); male and female patients (Part B) • Age 18 to <70 years • BMI 27 to <40 kg/m^2 • Body weight of at least 70 kg for women and 80 kg for men • Stable body weight, defined as no more than 5% change within 3 months prior to screening
Further criteria of interest: • AEs (including clinically relevant findings from the physical examination and assessment of local tolerability) • Safety laboratory tests • 12-lead ECG • Vital signs (blood pressure, pulse rate) • Continuous ECG (including mean daily heart rate) • Assessment of local tolerability by the investigator • The cumulative number [N (%)] of patients withdrawn from up-titration by up-titration scheme and week
Descriptive statistics were calculated for all endpoints. […] No formal interim analysis was conducted. Data from the completed 6-week cohorts were analysed before database lock for internal decision-making.

## CC[C@H](C)[C@H](NC(=O)[C@H](Cc1ccccc1)NC(=O)[C@H](CC(=O)O)NC(=O)[C@H](CCCCN)NC(=O)[C@H](C)NC(=O)[C@H](C)NC(=O)[C@H](CCCNC(=N)N)NC(=O)[C@H](CCC(=O)O)NC(=O)[C@H](CC(=O)O)NC(=O)[C@H](CC(C)C)NC(=O)[C@H](Cc1ccc(O)cc1)NC(=O)[C@H](CCCCN)NC(=O)[C@H](CO)NC(=O)[C@H](Cc1ccc(O)cc1)NC(=O)[C@H](CC(=O)O)NC(=O)[C@H](CO)NC(=O)[C@@H](NC(=O)[C@H](Cc1ccccc1)NC(=O)[C@@H](NC(=O)CNC(=O)[C@H](CCC(N)=O)NC(=O)C1(NC(=O)[C@@H](N)Cc2c[nH]cn2)CCC1)[C@@H](C)O)[C@@H](C)O)C(=O)N[C@@H](CCCCNC(=O)CNC(=O)CNC(=O)[C@H](CO)NC(=O)CNC(=O)[C@H](CO)NC(=O)CNC(=O)CC[C@H](NC(=O)CCCCCCCCCCCCCCCCC(=O)O)C(=O)O)C(=O)N[C@@H](Cc1c[nH]c2ccccc12)C(=O)N[C@@H](CC(C)C)C(=O)N[C@@H](CCC(=O)O)C(=O)N[C@@H](CO)C(=O)N[C@@H](C)C(N)=O [Compound I]
Ex.1 Part A
  clinical laboratory analyses: no treatment-emergent clinically relevant findings
  deaths: No patients died
Ex.1 Part A (6 wk), Compound I total
  Patients withdrawn from up-titration: 27 (40.3) N (%)
Ex.1 Part A (6 wk), Weekly 1
  Patients withdrawn from up-titration: 6 (35.3) N (%)
Ex.1 Part A (6 wk), Weekly 2
  Patients withdrawn from up-titration: 8 (44.4) N (%)
Ex.1 Part A (6 wk), Weekly 3
  Patients withdrawn from up-titration: 13 (76.5) N (%)
Ex.1 Part A, Cmp I total
  Patients with AE leading to discontinuation of trial drug: 5 (7.5) N (%)
  Patients with any AE: 67 (100) N (%)
  Patients with investigator defined drug-related AE: 67 (100) N (%)
  Patients with other significant AEs (ICH E3): 5 (7.5) N (%)
  Patients with serious AE: 1 (1.5) N (%)
  Patients with severe AE: 3 (4.5) N (%)
Ex.1 Part A, Daily
  Patients with AE leading to discontinuation of trial drug: 0 N (%)
  Patients with any AE: 15 (100) N (%)
  Patients with investigator defined drug-related AE: 15 (100) N (%)
  Patients with other significant AEs (ICH E3): 0 N (%)
  Patients with serious AE: 0 N (%)
  Patients with severe AE: 0 N (%)
  drug-related abdominal distension, frequency: 13.3%
  drug-related cardiac disorders: No drug-related cardiac disorders were reported
  drug-related vomiting, frequency: no cases
Ex.1 Part A, Weekly 1
  Patients with AE leading to discontinuation of trial drug: 1 (5.9) N (%)
  Patients with any AE: 17 (100) N (%)
  Patients with investigator defined drug-related AE: 17 (100) N (%)
  Patients with other significant AEs (ICH E3): 1 (5.9) N (%)
  Patients with serious AE: 0 N (%)
  Patients with severe AE: 1 (5.9) N (%)
  proportion of patients who withdrew from up-titration: 35.3%
Ex.1 Part A, Weekly 1 and Weekly 2
  patients with severe diarrhoea: 2 patients
Ex.1 Part A, Weekly 2
  Patients with AE leading to discontinuation of trial drug: 2 (11.1) N (%)
  Patients with any AE: 18 (100) N (%)
  Patients with investigator defined drug-related AE: 18 (100) N (%)
  Patients with other significant AEs (ICH E3): 2 (11.1) N (%)
  Patients with serious AE: 1 (5.6) N (%)
  Patients with severe AE: 2 (11.1) N (%)
  patients with severe vomiting: one
  proportion of patients who withdrew from up-titration: 44.4%
Ex.1 Part A, Weekly 2, assessed as drug-related, led to discontinuation
  patients with serious AE ventricular tachycardia: One
Ex.1 Part A, Weekly 3
  Patients with AE leading to discontinuation of trial drug: 2 (11.8) N (%)
  Patients with any AE: 17 (100) N (%)
  Patients with investigator defined drug-related AE: 17 (100) N (%)
  Patients with other significant AEs (ICH E3): 2 (11.8) N (%)
  Patients with serious AE: 0 N (%)
  Patients with severe AE: 0 N (%)
  proportion of patients who withdrew from up-titration: 76.5%
Ex.1 Part A, all Compound I groups
  proportion of patients who withdrew from up-titration: 40.3%
Ex.1 Part A, all Compound I treatment groups
  continuous ECG monitoring over 24 hours, mean heart rate: increases in mean heart rate
Ex.1 Part B
  clinical laboratory analyses: no treatment-emergent clinically relevant findings
  deaths: No patients died
  drug-related cardiac disorders: no cases
Ex.1 Part B (16 wk), Compound I total
  Patients withdrawn from up-titration: 8 (22.2) N (%)
Ex.1 Part B (16 wk), Weekly 4
  Patients withdrawn from up-titration: 3 (23.1) N (%)
Ex.1 Part B (16 wk), Weekly 5
  Patients withdrawn from up-titration: 4 (36.4) N (%)
Ex.1 Part B (16 wk), Weekly 6 (twice weekly)
  Patients withdrawn from up-titration: 1 (8.3) N (%)
Ex.1 Part B, Cmp I Total
  Patients with AE leading to discontinuation of trial drug: 6 (16.7) N (%)
  Patients with any AE: 35 (97.2) N (%)
  Patients with investigator defined drug-related AE: 35 (97.2) N (%)
  Patients with other significant AEs (ICH E3): 8 (22.2) N (%)
  Patients with serious AE: 0 N (%)
